{"source": "patent US20170224662A1", "about": "(priority 2016, published 2017)", "assay": "Binary excipient screening: stability of CPMM 1 mg/mL in IV-compatible excipient solutions in 10 mM pH 3 phosphate buffer", "format": "physicochemical", "conditions": "for CPMM % Purity: t = 0", "experimental": "CPMM was evaluated for compatibility with excipients that are suitable for IV administration. A buffer solution (phosphate at pH 3) was selected as the diluent for excipient screening studies. […] CPMM was solubilized in each excipient solution at 1 mg/mL.\nWhile CPMM completely dissolved in the control sample within several minutes, many of the excipient solutions required overnight storage at 5° C. to solubilize the drug.\nEach excipient sample solution was placed on a two-week stability study at 25° C./60% relative humidity and 40° C./75% relative humidity, and analyzed for CPMM purity at t=0, 1, and 2 weeks by comparing individual samples to their respective excipient blank solution.", "note": "Marks after values point to notes of the source that are not given here.", "data": [{"smiles": "COC(=O)C1(OC(=O)c2cncn2[C@H](C)c2ccccc2)CC1", "note": "[CPMM, 1-(methoxycarbonyl)cyclopropyl-1-[(1R)-1-phenylethyl]-1H-imidazole-5-carboxylate]", "values": [{"measurement": "Change in CPMM % Purity", "setting": "Lutrol F68 1% in pH 3 buffer, 1 week 40° C./75% RH", "result": "−5.2", "unit": "%"}, {"measurement": "Change in CPMM % Purity", "setting": "Lutrol F68 1% in pH 3 buffer, 2 weeks 25° C./60% RH", "result": "−2.5", "unit": "%"}, {"measurement": "Change in CPMM % Purity", "setting": "Lutrol F68 1% in pH 3 buffer, 2 weeks 40° C./75% RH", "result": "−9.0", "unit": "%"}, {"measurement": "CPMM % Purity", "setting": "Lutrol F68 1% in pH 3 buffer", "result": 99.5, "unit": "%"}, {"measurement": "Change in CPMM % Purity", "setting": "Mannitol 5% in pH 3 buffer, 1 week 25° C./60% RH", "result": "−1.5", "unit": "%"}, {"measurement": "Change in CPMM % Purity", "setting": "Mannitol 5% in pH 3 buffer, 1 week 40° C./75% RH", "result": "−5.2", "unit": "%"}, {"measurement": "Change in CPMM % Purity", "setting": "Mannitol 5% in pH 3 buffer, 2 weeks 25° C./60% RH", "result": "−2.6", "unit": "%"}, {"measurement": "Change in CPMM % Purity", "setting": "Mannitol 5% in pH 3 buffer, 2 weeks 40° C./75% RH", "result": "−9.1", "unit": "%"}, {"measurement": "CPMM % Purity", "setting": "Mannitol 5% in pH 3 buffer", "result": 99.4, "unit": "%"}, {"measurement": "Change in CPMM % Purity", "setting": "NaCl 5% in pH 3 buffer, 1 week 25° C./60% RH", "result": "−1.1", "unit": "%"}, {"measurement": "Change in CPMM % Purity", "setting": "NaCl 5% in pH 3 buffer, 1 week 40° C./75% RH", "result": "−4.0", "unit": "%"}, {"measurement": "Change in CPMM % Purity", "setting": "NaCl 5% in pH 3 buffer, 2 weeks 25° C./60% RH", "result": "−1.9", "unit": "%"}, {"measurement": "Change in CPMM % Purity", "setting": "NaCl 5% in pH 3 buffer, 2 weeks 40° C./75% RH", "result": "−7.2", "unit": "%"}, {"measurement": "CPMM % Purity", "setting": "NaCl 5% in pH 3 buffer", "result": 99.4, "unit": "%"}, {"measurement": "Change in CPMM % Purity", "setting": "PEG 400 10% in pH 3 buffer, 1 week 25° C./60% RH", "result": "−1.2", "unit": "%"}, {"measurement": "Change in CPMM % Purity", "setting": "PEG 400 10% in pH 3 buffer, 1 week 40° C./75% RH", "result": "−4.0", "unit": "%"}, {"measurement": "Change in CPMM % Purity", "setting": "PEG 400 10% in pH 3 buffer, 2 weeks 25° C./60% RH", "result": "−2.0", "unit": "%"}, {"measurement": "Change in CPMM % Purity", "setting": "PEG 400 10% in pH 3 buffer, 2 weeks 40° C./75% RH", "result": "−7.0", "unit": "%"}, {"measurement": "CPMM % Purity", "setting": "PEG 400 10% in pH 3 buffer", "result": 99.5, "unit": "%"}, {"measurement": "CPMM % Purity", "setting": "PVP K17 5% in pH 3 buffer, excipient peak co-elutes with several related substances, not accounted for", "result": 99.6, "unit": "%*"}, {"measurement": "Change in CPMM % Purity", "setting": "Polysorbate 20 1% in pH 3 buffer, 1 week 25° C./60% RH", "result": "−1.4", "unit": "%"}, {"measurement": "Change in CPMM % Purity", "setting": "Polysorbate 20 1% in pH 3 buffer, 1 week 40° C./75% RH", "result": "−4.6", "unit": "%"}, {"measurement": "Change in CPMM % Purity", "setting": "Polysorbate 20 1% in pH 3 buffer, 2 weeks 25° C./60% RH", "result": "−2.1", "unit": "%"}, {"measurement": "Change in CPMM % Purity", "setting": "Polysorbate 20 1% in pH 3 buffer, 2 weeks 40° C./75% RH", "result": "−8.1", "unit": "%"}, {"measurement": "CPMM % Purity", "setting": "Polysorbate 20 1% in pH 3 buffer", "result": 99.4, "unit": "%"}, {"measurement": "Change in CPMM % Purity", "setting": "Polysorbate 80 1% in pH 3 buffer, 1 week 25° C./60% RH, may be due to excipient impurities", "result": "−4.2", "unit": "%^†"}, {"measurement": "Change in CPMM % Purity", "setting": "Polysorbate 80 1% in pH 3 buffer, 1 week 40° C./75% RH, may be due to excipient impurities", "result": "−8.3", "unit": "%^†"}, {"measurement": "Change in CPMM % Purity", "setting": "Polysorbate 80 1% in pH 3 buffer, 2 weeks 25° C./60% RH, may be due to excipient impurities", "result": "−5.2", "unit": "%^†"}, {"measurement": "Change in CPMM % Purity", "setting": "Polysorbate 80 1% in pH 3 buffer, 2 weeks 40° C./75% RH, may be due to excipient impurities", "result": "−15.0", "unit": "%^†"}, {"measurement": "CPMM % Purity", "setting": "Polysorbate 80 1% in pH 3 buffer", "result": 99.4, "unit": "%"}, {"measurement": "Change in CPMM % Purity", "setting": "Propylene Glycol 10% in pH 3 buffer, 1 week 25° C./60% RH", "result": "−1.2", "unit": "%"}, {"measurement": "Change in CPMM % Purity", "setting": "Propylene Glycol 10% in pH 3 buffer, 1 week 40° C./75% RH", "result": "−4.0", "unit": "%"}, {"measurement": "Change in CPMM % Purity", "setting": "Propylene Glycol 10% in pH 3 buffer, 2 weeks 25° C./60% RH", "result": "−1.9", "unit": "%"}, {"measurement": "Change in CPMM % Purity", "setting": "Propylene Glycol 10% in pH 3 buffer, 2 weeks 40° C./75% RH", "result": "−6.9", "unit": "%"}, {"measurement": "CPMM % Purity", "setting": "Propylene Glycol 10% in pH 3 buffer", "result": 99.4, "unit": "%"}, {"measurement": "Change in CPMM % Purity", "setting": "SBECD 10% in pH 3 buffer, 1 week 25° C./60% RH", "result": "−0.4", "unit": "%"}, {"measurement": "Change in CPMM % Purity", "setting": "SBECD 10% in pH 3 buffer, 1 week 40° C./75% RH", "result": "−1.3", "unit": "%"}, {"measurement": "Change in CPMM % Purity", "setting": "SBECD 10% in pH 3 buffer, 2 weeks 25° C./60% RH", "result": "−0.4", "unit": "%"}, {"measurement": "Change in CPMM % Purity", "setting": "SBECD 10% in pH 3 buffer, 2 weeks 40° C./75% RH", "result": "−2.1", "unit": "%"}, {"measurement": "CPMM % Purity", "setting": "SBECD 10% in pH 3 buffer", "result": 99.4, "unit": "%"}, {"measurement": "Change in CPMM % Purity", "setting": "Sodium Bisulfite 0.5% in pH 3 buffer, 1 week 25° C./60% RH", "result": "−1.9", "unit": "%"}, {"measurement": "Change in CPMM % Purity", "setting": "Sodium Bisulfite 0.5% in pH 3 buffer, 1 week 40° C./75% RH", "result": "−7.2", "unit": "%"}, {"measurement": "Change in CPMM % Purity", "setting": "Sodium Bisulfite 0.5% in pH 3 buffer, 2 weeks 25° C./60% RH", "result": "−3.2", "unit": "%"}, {"measurement": "Change in CPMM % Purity", "setting": "Sodium Bisulfite 0.5% in pH 3 buffer, 2 weeks 40° C./75% RH", "result": "−12.2", "unit": "%"}, {"measurement": "CPMM % Purity", "setting": "Sodium Bisulfite 0.5% in pH 3 buffer", "result": 99.4, "unit": "%"}, {"measurement": "Change in CPMM % Purity", "setting": "Solutol HS15 1% in pH 3 buffer, 1 week 25° C./60% RH", "result": "−1.3", "unit": "%"}, {"measurement": "Change in CPMM % Purity", "setting": "Solutol HS15 1% in pH 3 buffer, 1 week 40° C./75% RH", "result": "−4.2", "unit": "%"}, {"measurement": "Change in CPMM % Purity", "setting": "Solutol HS15 1% in pH 3 buffer, 2 weeks 25° C./60% RH", "result": "−2.1", "unit": "%"}, {"measurement": "Change in CPMM % Purity", "setting": "Solutol HS15 1% in pH 3 buffer, 2 weeks 40° C./75% RH", "result": "−7.3", "unit": "%"}, {"measurement": "CPMM % Purity", "setting": "Solutol HS15 1% in pH 3 buffer", "result": 99.4, "unit": "%"}, {"measurement": "Change in CPMM % Purity", "setting": "Sorbitol 5% in pH 3 buffer, 1 week 25° C./60% RH", "result": "−1.3", "unit": "%"}, {"measurement": "Change in CPMM % Purity", "setting": "Sorbitol 5% in pH 3 buffer, 1 week 40° C./75% RH", "result": "−4.5", "unit": "%"}, {"measurement": "Change in CPMM % Purity", "setting": "Sorbitol 5% in pH 3 buffer, 2 weeks 25° C./60% RH", "result": "−2.3", "unit": "%"}, {"measurement": "Change in CPMM % Purity", "setting": "Sorbitol 5% in pH 3 buffer, 2 weeks 40° C./75% RH", "result": "−8.3", "unit": "%"}, {"measurement": "CPMM % Purity", "setting": "Sorbitol 5% in pH 3 buffer", "result": 99.5, "unit": "%"}, {"measurement": "Change in CPMM % Purity", "setting": "Sucrose 5% in pH 3 buffer, 1 week 25° C./60% RH", "result": "−1.5", "unit": "%"}, {"measurement": "Change in CPMM % Purity", "setting": "Sucrose 5% in pH 3 buffer, 1 week 40° C./75% RH", "result": "−5.2", "unit": "%"}, {"measurement": "Change in CPMM % Purity", "setting": "Sucrose 5% in pH 3 buffer, 2 weeks 25° C./60% RH", "result": "−2.5", "unit": "%"}, {"measurement": "Change in CPMM % Purity", "setting": "Sucrose 5% in pH 3 buffer, 2 weeks 40° C./75% RH", "result": "−9.0", "unit": "%"}, {"measurement": "CPMM % Purity", "setting": "Sucrose 5% in pH 3 buffer", "result": 99.4, "unit": "%"}, {"measurement": "Change in CPMM % Purity", "setting": "Trehalose 5% in pH 3 buffer, 1 week 25° C./60% RH", "result": "−1.3", "unit": "%"}, {"measurement": "Change in CPMM % Purity", "setting": "Trehalose 5% in pH 3 buffer, 1 week 40° C./75% RH", "result": "−4.6", "unit": "%"}, {"measurement": "Change in CPMM % Purity", "setting": "Trehalose 5% in pH 3 buffer, 2 weeks 25° C./60% RH", "result": "−2.3", "unit": "%"}, {"measurement": "Change in CPMM % Purity", "setting": "Trehalose 5% in pH 3 buffer, 2 weeks 40° C./75% RH", "result": "−8.4", "unit": "%"}, {"measurement": "CPMM % Purity", "setting": "Trehalose 5% in pH 3 buffer", "result": 99.4, "unit": "%"}]}]}
